The source of these data is article PMC8042910, “Adiponectin-mimetic novel nonapeptide rescues aberrant neuronal metabolic-associated memory deficits in Alzheimer’s disease” (Molecular Neurodegeneration, 2021).

For the test, the system named is p-IRS-1 and p-PI3K/Akt/GSK3β (Ser 9) pathways. Briefly: Insulin resistance and downstream insulin signaling in APPswe/ind-overexpressing SH-SY5Y cells, immunoblot. The test is classed as cell-based, human. The settings on record: APPswe/ind SH-SY5YIR, Comp. C 10 μM with Os-pep 10 μM. Here is the method:
Human neuroblastoma SH-SY5Y cells were seeded (in 6-well culture plates for immunoblotting and in chamber slides for immunofluorescence) in DMEM (Dulbecco’s modified Eagle medium) containing 10% fetal bovine serum (FBS) and 1% antibiotics (penicillin-streptomycin) and incubated at 37 °C in humidified air containing 5% CO2. Once the cells reached 70–80% confluence, the cells were transfected using the pCAX vector containing the APPswe/ind gene using Lipofectamine 3000 (Life Technologies) according to the provider’s protocols. AdipoR1 siRNA (h) (SC-60123) and AMPK siRNA (h) (SC-45312) (Santa Cruz Biotechnology, Inc.) were used at a concentration of 10 μM per transfection and expressed for 72 h according to the manufacturer’s protocol (Santa Cruz Biotechnology, Inc.). A negative siRNA (Ambion, Thermo Fisher Scientific) was used as a control. Seventy-two hours after the transfections, the cells were exposed to Os-pep (10 μM) for 12 h and then subjected to immunoblotting and immunofluorescence analyses.
Human neuroblastoma SH-SY5Y cells were treated with 1 µM of insulin for 48 h to produce intrinsic insulin-resistant human neuroblastoma (SH-SY5YIR) cells. After 48 h, SH-SY5YIR cells were overexpressed with human APPswe/ind and subjected with AdipoR1 siRNA which further exposed to 10 nM insulin, Os-pep (10 µM) or compound C (10 µM) for 12 h, and then cell lysates were collected and proceeded accordingly for immunoblotting and ELISA.
Background: In western blotting, separated proteins are transferred to a membrane and probed.

Regarding `c1cc(-c2cnn3cc(-c4ccc(OCCN5CCCCC5)cc4)cnc23)ccn1` [Comp. C, reference compound], the “effect on insulin-sensitizing effect of Os-pep” value is recorded as “inhibited the insulin-sensitizing effect of Os-pep”.
